Read-outs that look alike come from different tables or passages of the source.
What was measured:
rats [1] = assay: Anorexia-inducing action, food consumption of male Charles River rats, 1 hour and 6 hours after administration; assay type: in vivo; settings: Rattus norvegicus, oral
Method: (§1) The experiment was carried out by administering each compound orally at several doses to batches of 8 animals per dose, 1 hour before the distribution of the food, and graphically determining the 50% active doses (AD 50 = dose capable of reducing the food consumption by 50%).
The AD 50 (i.e. the dose which reduces food consumption by 50% compared with untreated controls) was also determined, in the same way as that described above, on male `Charles River` rats, 1 hour and 6 hours after administration of the compounds under test.

[2] = Acute toxicity (50% lethal dose, determined graphically); assay type: in vivo, mice (CDl); settings: mouse, in vivo, CDl mice
Method: (§2) Acute toxicity: the experiments were carried out on CDl mice of average weight 20 g. The 50% lethal dose (LD 50) was determined graphically.

rats [3] = assay: Anorexia-inducing action, food consumption of female SJ (Janvier) rats; assay type: in vivo; settings: for ED50: Rattus norvegicus, female SJ (Janvier) rats, oral, 1 hour before distribution of food
Method: as §1

CDl mice = assay: Acute toxicity (50% lethal dose, determined graphically); assay type: in vivo
Method: as §2

CD1 mice = assay: Conventional actimetry test (motility); assay type: in vivo
[4] = after 1 hour, read-out: Anorexia-inducing Action AD 50 orally after 1 hour
[5] = after 6 hours, read-out: Anorexia-inducing Action AD 50 orally after 6 hours
[6] = intravenous, read-out: Acute toxicity LD 50, intravenous administration
[7] = oral, read-out: Acute toxicity LD 50, oral administration
[8] = 1st series, read-out: Anorexia-inducing action AD 50, administered orally, 1st series
[9] = 2nd series, read-out: Anorexia-inducing action AD 50, administered orally, 2nd series

Structure (SMILES)	ED50 (rats [1]; [4]) [mg/kg]	ED50 (rats [1]; [5]) [mg/kg]	LD50 [2, 6] [mg/kg]	LD50 [2, 7] [mg/kg]	ED50 (rats [3]; [8]) [mg/kg]	ED50 (rats [3]; [9]) [mg/kg]	toxicity (CDl mice; overall conclusion)	therapeutic index (CDl mice; overall conclusion from LD 50 and AD 50)	motor activity at higher doses (CD1 mice; CD1 mice, 20 mg/kg)	motility at a low dose (CD1 mice; CD1 mice, up to 5 mg/kg)	stimulant effect (CD1 mice; overall conclusion)	anorexia-inducing activity compared with the reference compounds (rats [3]; overall conclusion from Tables I and II)
CCNC(C)Cc1cccc(C(F)(F)F)c1 (stereo not shown) [Fenfluramine, reference compound]	1.4	4	42	195	5	–	–	–	–	–	–	–
Fc1ccc(N2CCNCC2)cc1C(F)(F)F [SLC-001, 1-(4-fluoro-3-trifluoromethyl-phenyl)-piperazine, reference compound]	2	> 6	59	150	–	2.2	–	–	–	–	–	–
Fc1ccc(N2CCNCC2)cc1SC(F)(F)F [SLC-298, 1-(4-fluoro-3-trifluoromethylthiophenyl)-piperazine]	1.9	2.7	60	150	1.5	1.8	moderate	high	reduces the motor activity	only very slightly increases the motility	little or no stimulant effect	more active as an anorexia-inducing agent than the reference compounds
